Experimental data as given in US6787672B2, “Substituted chalcones as therapeutic compounds” (Cancer Research Technology Limited, priority 2000, dated 2004).
pIC50: −log10 of the molar value. Like-named read-outs stand apart in the source and are kept apart here.

Columns and labels:
[1] = tested on: lung cancer cell line A-549; experiment: MTT assay, tumour cell growth inhibition, lung A-549; type: cell-based, human; conditions: for pIC50: Homo sapiens, A549, Lung A-549, MTT, 96 h, read-out: IC50, dose required for 50% inhibition of tumour cell growth
Excerpt: (§1) The human tumour cell lines were the breast cancer cell line MCF-7, the colon cancer cell line HCT-116, and the lung cancer cell line A-549. The MTT assay was used, which exploits the ability of living cells to metabolise the water soluble tetrazolium salt 3-[4,5-dimethylthiazol-2yl-2,5-diphenyl tetrazolium bromide (MTT) into a water insoluble formazan precipitate (Carmichael et al, 1987). The purple precipitate can then be dissolved in an organic solvent and the optical density determined as a measure of cell survival. Compounds were tested concurrently for a true comparison.
(§2) The compound under study was dissolved in DMSO to yield a 10 mM stock solution. […] Cells were seeded into sterile flat-bottomed 96-well plates at a known initial seeding density (MCF-7 1.5×10E3, HCT-116 1×10E3, A549 2×10E3). The cells were plated in RPMI 1640 medium supplemented with 10% heat-inactivated Foetal Calf Serum solution. The plates were then incubated for 24 h at 37° C., 5% CO2 to allow cell adherence. 20 μl of the appropriate drug dilution (from serial dilutions in medium from 10 mM stock) was added to the wells (to give a final well volume of 200 μl). Plates were returned to the incubator for 96 h, and then 50 μl of MTT was added to each well. After a further 4 h incubation, the medium and any unconverted MTT was aspirated from the wells and the formazan precipitate dissolved by the addition of 100 μl of DMSO and several minutes agitation. The absorbance at A450 was then recorded on a plate reader, and the results expressed as a % survival of DMSO treated controls.

[2] = tested on: colon cancer cell line HCT-116; experiment: MTT assay, tumour cell growth inhibition, colon HCT-116; type: cell-based, human; conditions: for pIC50: read-out: IC50, dose required for 50% inhibition of tumour cell growth
Excerpt: as §1, §2

splenocytes = experiment: Splenocyte anti-proliferation assay (Con A stimulated, tritiated thymidine); type: cell-based; conditions: FIG. 1, triplicate
Excerpt: The anti-inflammatory effects of Compound II (DMU-120) were examined (in triplicate) using a splenocyte anti-proliferation assay.
The splenocyte anti-proliferation assay has been developed to identify compounds that have useful anti-inflammatory properties for the treatment of auto-inflammatory diseases such as rheumatoid arthritis. See, for example, Yamashita et al., 1994. This well known assay is described in detail in, for example, Mosmann, 1983. In this assay, splenocyte proliferation is stimulated by the inflammatory response inducer conconavilin A (Con A). Cell proliferation is monitored by detecting radiation (counts per minute, cpm) from a radio label (tritiated thymidine) which is incorporated only into proliferating cells.
The compound was assayed as a solution in dimethylsulfoxide (DMSO) as solvent. The solvent control is also shown for comparison. Other controls are also shown. “ConA” denotes the signal (cpm) detected for a control where cell proliferation is stimulated by ConA in the absence of a test compound. “Med” denotes the signal (cpm) detected for the cell culture medium alone. “Bkg” denotes the background radiation level (cpm).

CYP1B1 enzyme = molecular target: T1, CYP1B1 enzyme (Homo sapiens, UniProt Q16678); experiment: Metabolism by microsomal preparation of human tumour tissue expressing CYP1B1, HPLC; type: in vitro ADME; conditions: human tumour microsomes, NADPH, 1 h, 37° C., pH 7.6
T1 construct: A microsomal preparation of human tumour tissue expressing the CYP1B1 enzyme was prepared; from tissue; host or cells: human tumour tissue (microsomal preparation)
T1 sequence (Q16678 1-543): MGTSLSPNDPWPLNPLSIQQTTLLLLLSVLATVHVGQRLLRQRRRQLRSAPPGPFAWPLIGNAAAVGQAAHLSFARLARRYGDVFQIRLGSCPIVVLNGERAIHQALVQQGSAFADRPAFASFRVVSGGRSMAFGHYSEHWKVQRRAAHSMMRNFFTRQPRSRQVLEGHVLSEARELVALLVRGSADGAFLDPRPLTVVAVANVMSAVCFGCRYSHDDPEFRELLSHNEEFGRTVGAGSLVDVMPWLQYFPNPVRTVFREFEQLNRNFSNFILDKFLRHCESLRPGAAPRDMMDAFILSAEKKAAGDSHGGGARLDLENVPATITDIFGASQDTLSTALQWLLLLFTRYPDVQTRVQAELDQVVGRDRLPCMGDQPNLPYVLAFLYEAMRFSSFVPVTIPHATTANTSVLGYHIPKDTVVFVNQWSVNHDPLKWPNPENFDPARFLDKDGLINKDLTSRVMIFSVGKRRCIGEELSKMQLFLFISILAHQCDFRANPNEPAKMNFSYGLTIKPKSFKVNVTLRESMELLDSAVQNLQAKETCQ
Experimental: A microsomal preparation of human tumour tissue expressing the CYP1B1 enzyme was prepared essentially as described by the method of Barrie et al., 1989. The experiment was carried out at 37° C., under yellow light. An array of 1.5 ml centrifuge tubes were set up in a water bath shaker-under aerobic conditions. To each tube was then added 500 μl of pH 7.6 buffer (0.1 M NaK2PO4), followed by NADPH (5 μl of a 25 mM stock solution). The microsomal preparation (80 μl) was then added and the tubes preincubated for 5 min at 37° C.
The prodrug substrate, compound II, was then added (10 μl of a 5 mM stock solution) and incubated for 1 h at 37° C. After 1 h the tubes were transferred to an ice/water cooling bath (0° C.). The tubes were then centrifuged at 15,000 rpm for 30 min. A sample of the supernatant (100 μl) was then taken and analysed by HPLC. HPLC conditions: Spherisorb C18 (25 cm×4.6 mm id), used without guard column. Flow rate 1 ml/min. Eluent 75% 0.1 M KH2PO4 and 25% acetonitrile.
The hydroxylated metabolite, compound III, was detected by HPLC, and confirmed by comparison with the authentic hydroxylated synthetic compound III.

[3] = tested on: breast cancer cell line MCF-7; experiment: MTT assay, tumour cell growth inhibition, breast MCF-7; type: cell-based, human; conditions: for pIC50: Homo sapiens, MCF7, Breast MCF-7, MTT, 96 h, read-out: IC50, dose required for 50% inhibition of tumour cell growth
Excerpt: as §1, §2

[4] = Homo sapiens, Colon HCT-116, MTT, 96 h

pIC50 [1]	pIC50 [2, 4]	melting point	pIC50 [3]	IC50 ([2]; Homo sapiens, Colon HCT-116, MTT, 96 h, read-out: IC50 against colon tumour cell line HCT-116, restated in nM)	Compound	Selectivity Factor (Prodrug/Metabolite) ([1]; Lung A-549, IC50 Compound II / IC50 Compound III)	Selectivity Factor (Prodrug/Metabolite) ([2]; Colon HCT-116, IC50 Compound II / IC50 Compound III)	Concentration showing anti-inflammatory effects on splenocyte proliferation (splenocytes)	Metabolic conversion by CYP1B1 (aromatic hydroxylation) (CYP1B1 enzyme)	Selectivity Factor (Prodrug/Metabolite) ([3]; Breast MCF-7, IC50 Compound II / IC50 Compound III)
5.18	5.92	87 to 88 °C	6.16		COc1ccc(/C=C/C(=O)c2cc(OC)cc(OC)c2)cc1 [Compound II, (E)-1-(4-Methoxyphenyl)-3-(3,5-dimethoxyphenyl)prop-1-en-3-one]	80	15000	less than 10 μM	converted to the hydroxylated metabolite compound III	1100
7.10	10.10	129 °C	9.19	0.08 nM	COc1cc(OC)cc(C(=O)/C=C/c2ccc(OC)c(O)c2)c1 [Compound III, (E)-1-(3-Hydroxy-4-methoxyphenyl)-3-(3,5-dimethoxyphenyl)prop-1-en-3-one]					
			10.00		COc1cc(OC)cc(C(=O)/C=C/c2ccc(OC)cc2OC)c1 [Compound IV, (E)-1-(2,4-dimethoxyphenyl)-3-(3,5-dimethoxyphenyl)prop-1-en-3-one]					
